{
  "source": "patent US5972894A",
  "about": "“Peptides having potassium channel opener activity” (Cytran, Inc., priority 1997, dated 1999)",
  "tested_on": "ischemic myocardium",
  "assay": "Inotropic function and arrhythmias of ischemic isolated rat heart during reperfusion",
  "conditions": "for -dp/dtmax, % of preischemic value: by the 30th minute of reperfusion",
  "text": "Rat hearts were surgically isolated from white random-bred rats weighing approximately 250 g. The isolated hearts were perfused with a standard oxygenated (95% O2 and 5% CO2) Krebs-Henseleit solution in a retrograde manner (i.e., according to Langendorff and using a constant perfusate pressure of 80 cm of water). The hearts maintained a steady spontaneous contraction rate. A latex balloon catheter connected to a pressure transducer (EMT-746, Siemens-Elema, Sweden) was inserted into the left ventricle of each heart to measure the inotropic function of the heart (as described in Example 3, above). The left ventricle pressure variation curve was recorded using a polygraph.\nStage I (\"adaptation regimen\") consisted of a 30-minute adaptation of the respective rat hearts to the perfusion regimen. The baseline parameters for the inotropic function of each heart were recorded to establish the preischemic values for the following measured parameters: (i) the systolic pressure in the left ventricle (Psyst. mm Hg); (ii) the diastolic pressure in the left ventricle (Pdiast. mm Hg); (iii) the evolving pressure (Pev. =Psyst. -Pdist. mm Hg); (iv) the maximal rate of increase of left ventricle pressure (+dp/dtmax mm Hg/sec); and (v) the maximal rate of decrease of left ventricle pressure (-dp/dtmax mm Hg/sec). In addition, the heart rate (HR) of each heart was determined from the recordings made of the variations in the left ventricle pressure over time. In Stage II (\"ischemic simulation\"), ischemia was induced in each heart by shutting off the supply of the perfusion solution to the heart. Approximately 30 minutes later, Stage III (\"reperfusion regimen\") was initiated by restarting the reperfusion and including in the perfusate solution a test or control substance at one of the following respective concentrations: a perfusate solution of a test substance comprised 0.06, 0.6, or 6.0 mg/l GE, or 0.06, 0.6, or 6.0 mg/l VT, respectively; a perfusate solution of the positive control substance comprised 14 mg/l inosine. Inosine is a nucleoside preparation that produces a favorable inotropic effect on both normal and ischemic myocardium while inducing no rhythm disturbances or acceleration of ischemic contracture development. Woollard et al., Cardiovasc. Res. 15: 659-67 (1981). Inosine was obtained from Sigma Chemical Company, USA (Cat. Code I-4125; lot number 81H0227). The negative control substance comprised reperfusion using a standard oxygenated Krebs-Henseleit solution.\nFor each heart, the inotropic function of the myocardium was evaluated by measuring the parameters (i) through (v), discussed above, and the heart rate. These six parameters were recorded continuously throughout the study (i.e., beginning with Stage I and continuing through Stage III). The recordings were analyzed at the following times: (a) immediately before beginning Stage II (that is, after the 30-minute Stage I adaptation period, but before stopping perfusion); and (b) at 1, 5, 10, 20, and 30 minutes into the Stage III reperfusion.\nThe frequency and duration of rhythm disturbances in the 30-minute Stage III reperfusion period were determined by measuring the following parameters: (i) the number of ventricular extrasystoles; (ii) the overall duration of ventricular tachycardias (in seconds); and (iii) the overall duration of ventricular fibrillation (in seconds). Each dose of the test substance was tested on nine isolated hearts.",
  "key": {"[1]": {"conditions": "6.0 mg/l, 30-minute reperfusion"}},
  "note": "Residues, ends and D or L forms follow the SMILES beside them.",
  "data": [
    {"smiles": "NCC(=O)N[C@@H](CCC(=O)O)C(=O)O", "note": "[GE, L-Glycyl-L-Glutamic acid] (H-Gly-Glu-OH)", "values": [
      {"measurement": "Systolic Pressure in Ischemic Left Ventricle (% of Preischemic Values)", "setting": "0.6 mg/l, 10 min reperfusion", "value": 88.40, "unit": "%"},
      {"measurement": "Diastolic Pressure in Ischemic Left Ventricle (% of Preischemic Mean Value)", "setting": "0.6 mg/l, 20 min reperfusion", "value": 99.28, "unit": "%"},
      {"measurement": "Evolving Pressure in Ischemic Left Ventricle (% of Preischemic Mean Value)", "setting": "0.6 mg/l, 20 min reperfusion", "value": 78.42, "unit": "%"},
      {"measurement": "Heart Rate during Reperfusion (% of Preischemic Mean Value)", "setting": "0.6 mg/l, 20 min reperfusion", "value": 91.53, "unit": "%"},
      {"measurement": "Maximal Rate of Increase of Left Ventricle Pressure (% of Preischemic Mean Value)", "setting": "0.6 mg/l, 20 min reperfusion", "value": 81.12, "unit": "%"},
      {"measurement": "Maximal Rate of Left Ventricle Pressure Decrease (% of Preischemic Mean Value)", "setting": "0.6 mg/l, 20 min reperfusion", "value": 84.10, "unit": "%"},
      {"measurement": "Systolic Pressure in Ischemic Left Ventricle (% of Preischemic Values)", "setting": "0.6 mg/l, 20 min reperfusion", "value": 82.35, "unit": "%"},
      {"measurement": "Diastolic Pressure in Ischemic Left Ventricle (% of Preischemic Mean Value)", "setting": "0.6 mg/l, 30 min reperfusion", "value": 127.06, "unit": "%"},
      {"measurement": "Evolving Pressure in Ischemic Left Ventricle (% of Preischemic Mean Value)", "setting": "0.6 mg/l, 30 min reperfusion", "value": 87.22, "unit": "%"},
      {"measurement": "Heart Rate during Reperfusion (% of Preischemic Mean Value)", "setting": "0.6 mg/l, 30 min reperfusion", "value": 106.61, "unit": "%"},
      {"measurement": "Maximal Rate of Increase of Left Ventricle Pressure (% of Preischemic Mean Value)", "setting": "0.6 mg/l, 30 min reperfusion", "value": 97.62, "unit": "%"},
      {"measurement": "Maximal Rate of Left Ventricle Pressure Decrease (% of Preischemic Mean Value)", "setting": "0.6 mg/l, 30 min reperfusion", "value": 91.20, "unit": "%"},
      {"measurement": "Systolic Pressure in Ischemic Left Ventricle (% of Preischemic Values)", "setting": "0.6 mg/l, 30 min reperfusion", "value": 91.89, "unit": "%"},
      {"measurement": "restoration of +dp/dtmax", "setting": "0.6 mg/l, after 30 minutes of reperfusion", "value": "nearly to its preischemic level"},
      {"measurement": "evolving pressure, % of preischemic level", "setting": "0.6 mg/l, after about 20 or about 30 minutes of reperfusion, respectively", "value": "≥ 85", "unit": "%"},
      {"measurement": "-dp/dtmax, % of preischemic value", "setting": "0.6 mg/l", "value": "greater than 90%"},
      {"measurement": "Number of Ventricular Extrasystoles", "setting": "[1]", "value": 174.9},
      {"measurement": "Overall Duration of Ventricular Fibrillation", "setting": "[1]", "value": 79.6, "unit": "s"},
      {"measurement": "Overall Duration of Ventricular Tachycardia", "setting": "[1]", "value": 5.2, "unit": "s"},
      {"measurement": "Diastolic Pressure in Ischemic Left Ventricle (% of Preischemic Mean Value)", "setting": "6.0 mg/l, 1 min reperfusion", "value": 53.97, "unit": "%"},
      {"measurement": "Evolving Pressure in Ischemic Left Ventricle (% of Preischemic Mean Value)", "setting": "6.0 mg/l, 1 min reperfusion", "value": 78.34, "unit": "%"},
      {"measurement": "Heart Rate during Reperfusion (% of Preischemic Mean Value)", "setting": "6.0 mg/l, 1 min reperfusion", "value": 38.86, "unit": "%"},
      {"measurement": "Maximal Rate of Increase of Left Ventricle Pressure (% of Preischemic Mean Value)", "setting": "6.0 mg/l, 1 min reperfusion", "value": 71.18, "unit": "%"},
      {"measurement": "Maximal Rate of Left Ventricle Pressure Decrease (% of Preischemic Mean Value)", "setting": "6.0 mg/l, 1 min reperfusion", "value": 59.93, "unit": "%"},
      {"measurement": "Systolic Pressure in Ischemic Left Ventricle (% of Preischemic Values)", "setting": "6.0 mg/l, 1 min reperfusion", "value": 72.87, "unit": "%"},
      {"measurement": "Diastolic Pressure in Ischemic Left Ventricle (% of Preischemic Mean Value)", "setting": "6.0 mg/l, 5 min reperfusion", "value": 65.08, "unit": "%"},
      {"measurement": "Evolving Pressure in Ischemic Left Ventricle (% of Preischemic Mean Value)", "setting": "6.0 mg/l, 5 min reperfusion", "value": 68.80, "unit": "%"},
      {"measurement": "Heart Rate during Reperfusion (% of Preischemic Mean Value)", "setting": "6.0 mg/l, 5 min reperfusion", "value": 55.65, "unit": "%"},
      {"measurement": "Maximal Rate of Increase of Left Ventricle Pressure (% of Preischemic Mean Value)", "setting": "6.0 mg/l, 5 min reperfusion", "value": 68.10, "unit": "%"},
      {"measurement": "Maximal Rate of Left Ventricle Pressure Decrease (% of Preischemic Mean Value)", "setting": "6.0 mg/l, 5 min reperfusion", "value": 70.76, "unit": "%"},
      {"measurement": "Systolic Pressure in Ischemic Left Ventricle (% of Preischemic Values)", "setting": "6.0 mg/l, 5 min reperfusion", "value": 67.10, "unit": "%"},
      {"measurement": "Diastolic Pressure in Ischemic Left Ventricle (% of Preischemic Mean Value)", "setting": "6.0 mg/l, 10 min reperfusion", "value": 103.17, "unit": "%"},
      {"measurement": "Evolving Pressure in Ischemic Left Ventricle (% of Preischemic Mean Value)", "setting": "6.0 mg/l, 10 min reperfusion", "value": 74.86, "unit": "%"},
      {"measurement": "Heart Rate during Reperfusion (% of Preischemic Mean Value)", "setting": "6.0 mg/l, 10 min reperfusion", "value": 82.12, "unit": "%"},
      {"measurement": "Maximal Rate of Increase of Left Ventricle Pressure (% of Preischemic Mean Value)", "setting": "6.0 mg/l, 10 min reperfusion", "value": 77.78, "unit": "%"},
      {"measurement": "Maximal Rate of Left Ventricle Pressure Decrease (% of Preischemic Mean Value)", "setting": "6.0 mg/l, 10 min reperfusion", "value": 93.15, "unit": "%"},
      {"measurement": "Systolic Pressure in Ischemic Left Ventricle (% of Preischemic Values)", "setting": "6.0 mg/l, 10 min reperfusion", "value": 77.71, "unit": "%"},
      {"measurement": "Diastolic Pressure in Ischemic Left Ventricle (% of Preischemic Mean Value)", "setting": "6.0 mg/l, 20 min reperfusion", "value": 83.98, "unit": "%"},
      {"measurement": "Evolving Pressure in Ischemic Left Ventricle (% of Preischemic Mean Value)", "setting": "6.0 mg/l, 20 min reperfusion", "value": 78.47, "unit": "%"},
      {"measurement": "Heart Rate during Reperfusion (% of Preischemic Mean Value)", "setting": "6.0 mg/l, 20 min reperfusion", "value": 77.12, "unit": "%"},
      {"measurement": "Maximal Rate of Increase of Left Ventricle Pressure (% of Preischemic Mean Value)", "setting": "6.0 mg/l, 20 min reperfusion", "value": 82.47, "unit": "%"},
      {"measurement": "Maximal Rate of Left Ventricle Pressure Decrease (% of Preischemic Mean Value)", "setting": "6.0 mg/l, 20 min reperfusion", "value": 95.32, "unit": "%"},
      {"measurement": "Systolic Pressure in Ischemic Left Ventricle (% of Preischemic Values)", "setting": "6.0 mg/l, 20 min reperfusion", "value": 77.71, "unit": "%"},
      {"measurement": "Diastolic Pressure in Ischemic Left Ventricle (% of Preischemic Mean Value)", "setting": "6.0 mg/l, 30 min reperfusion", "value": 132.47, "unit": "%"},
      {"measurement": "Evolving Pressure in Ischemic Left Ventricle (% of Preischemic Mean Value)", "setting": "6.0 mg/l, 30 min reperfusion", "value": 73.08, "unit": "%"},
      {"measurement": "Heart Rate during Reperfusion (% of Preischemic Mean Value)", "setting": "6.0 mg/l, 30 min reperfusion", "value": 63.29, "unit": "%"},
      {"measurement": "Maximal Rate of Increase of Left Ventricle Pressure (% of Preischemic Mean Value)", "setting": "6.0 mg/l, 30 min reperfusion", "value": 74.49, "unit": "%"},
      {"measurement": "Maximal Rate of Left Ventricle Pressure Decrease (% of Preischemic Mean Value)", "setting": "6.0 mg/l, 30 min reperfusion", "value": 93.07, "unit": "%"},
      {"measurement": "Systolic Pressure in Ischemic Left Ventricle (% of Preischemic Values)", "setting": "6.0 mg/l, 30 min reperfusion", "value": 79.73, "unit": "%"},
      {"measurement": "-dp/dtmax, % of preischemic value", "setting": "6.0 mg/l", "value": "greater than 90%"},
      {"measurement": "arrhythmogenic effect during reperfusion", "setting": "0.06-6.0 mg/l", "value": "Neither GE nor VT was found to have an arrhythmogenic effect"},
      {"measurement": "effect on systolic pressure drop", "setting": "0.06 and 0.6 mg/l", "value": "prevented the dramatic drop in systolic pressure"},
      {"measurement": "chronotropic effect on heart rate", "setting": "0.06 and 6.0 mg/l", "value": "moderate negative chronotropic effect"},
      {"measurement": "effect on diastolic pressure increase", "setting": "reperfusion", "value": "prevented the increase in diastolic pressure"}
    ]}
  ]
}
